Assay results taken from ChEMBL document CHEMBL5696441 (Nat Chem Biol, 2011).

Legend:
[1] = target: Serine/threonine-protein kinase 26 (Homo sapiens) (UniProt Q9P289); test: Inhibition of MST4 (unknown origin) assessed as remaining activity at 1 uM by Kinome scan method relative to control
[2] = target: MAP kinase-activated protein kinase 2 (Homo sapiens) (UniProt P49137); test: Inhibition of MAPKAPK2 (unknown origin) assessed as remaining activity at 1 uM by Kinome scan method relative to control
Sequence of MAP kinase-activated protein kinase 2 (Homo sapiens) (P49137 whole entry, looked up): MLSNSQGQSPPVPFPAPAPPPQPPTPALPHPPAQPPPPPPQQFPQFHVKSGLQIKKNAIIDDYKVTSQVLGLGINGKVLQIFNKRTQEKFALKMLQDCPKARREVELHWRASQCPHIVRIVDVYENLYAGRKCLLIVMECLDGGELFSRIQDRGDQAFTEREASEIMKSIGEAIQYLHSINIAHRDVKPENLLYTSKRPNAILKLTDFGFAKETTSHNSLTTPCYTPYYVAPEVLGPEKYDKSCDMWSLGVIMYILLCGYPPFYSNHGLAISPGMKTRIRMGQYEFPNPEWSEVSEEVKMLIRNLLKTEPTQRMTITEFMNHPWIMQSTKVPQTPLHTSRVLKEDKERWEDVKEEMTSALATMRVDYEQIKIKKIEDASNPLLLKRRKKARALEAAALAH

[3] = target: T1, Mitogen-activated protein kinase 12 (Homo sapiens) (UniProt P53778); test: Inhibition of P38gamma (unknown origin) assessed as remaining activity at 1 uM by Kinome scan method relative to control
T1 sequence (whole entry): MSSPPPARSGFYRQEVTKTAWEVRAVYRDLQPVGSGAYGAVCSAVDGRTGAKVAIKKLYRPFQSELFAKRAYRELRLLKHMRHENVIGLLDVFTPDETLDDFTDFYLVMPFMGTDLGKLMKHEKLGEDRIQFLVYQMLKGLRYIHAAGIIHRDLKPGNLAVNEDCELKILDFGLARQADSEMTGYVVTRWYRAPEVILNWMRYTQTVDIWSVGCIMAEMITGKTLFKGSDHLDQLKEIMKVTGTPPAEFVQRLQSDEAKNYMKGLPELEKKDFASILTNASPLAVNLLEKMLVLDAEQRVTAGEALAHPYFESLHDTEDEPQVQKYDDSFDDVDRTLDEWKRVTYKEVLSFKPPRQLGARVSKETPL

[4] = target: RAC-gamma serine/threonine-protein kinase (Homo sapiens) (UniProt Q9Y243); test: Inhibition of AKT3 (unknown origin) assessed as remaining activity at 1 uM by Kinome scan method relative to control
[5] = target: Serine/threonine-protein kinase MRCK beta (Homo sapiens) (UniProt Q9Y5S2); test: Inhibition of MRCKB (unknown origin) assessed as remaining activity at 1 uM by Kinome scan method relative to control
Sequence of Serine/threonine-protein kinase MRCK beta (Homo sapiens) (Q9Y5S2 whole entry): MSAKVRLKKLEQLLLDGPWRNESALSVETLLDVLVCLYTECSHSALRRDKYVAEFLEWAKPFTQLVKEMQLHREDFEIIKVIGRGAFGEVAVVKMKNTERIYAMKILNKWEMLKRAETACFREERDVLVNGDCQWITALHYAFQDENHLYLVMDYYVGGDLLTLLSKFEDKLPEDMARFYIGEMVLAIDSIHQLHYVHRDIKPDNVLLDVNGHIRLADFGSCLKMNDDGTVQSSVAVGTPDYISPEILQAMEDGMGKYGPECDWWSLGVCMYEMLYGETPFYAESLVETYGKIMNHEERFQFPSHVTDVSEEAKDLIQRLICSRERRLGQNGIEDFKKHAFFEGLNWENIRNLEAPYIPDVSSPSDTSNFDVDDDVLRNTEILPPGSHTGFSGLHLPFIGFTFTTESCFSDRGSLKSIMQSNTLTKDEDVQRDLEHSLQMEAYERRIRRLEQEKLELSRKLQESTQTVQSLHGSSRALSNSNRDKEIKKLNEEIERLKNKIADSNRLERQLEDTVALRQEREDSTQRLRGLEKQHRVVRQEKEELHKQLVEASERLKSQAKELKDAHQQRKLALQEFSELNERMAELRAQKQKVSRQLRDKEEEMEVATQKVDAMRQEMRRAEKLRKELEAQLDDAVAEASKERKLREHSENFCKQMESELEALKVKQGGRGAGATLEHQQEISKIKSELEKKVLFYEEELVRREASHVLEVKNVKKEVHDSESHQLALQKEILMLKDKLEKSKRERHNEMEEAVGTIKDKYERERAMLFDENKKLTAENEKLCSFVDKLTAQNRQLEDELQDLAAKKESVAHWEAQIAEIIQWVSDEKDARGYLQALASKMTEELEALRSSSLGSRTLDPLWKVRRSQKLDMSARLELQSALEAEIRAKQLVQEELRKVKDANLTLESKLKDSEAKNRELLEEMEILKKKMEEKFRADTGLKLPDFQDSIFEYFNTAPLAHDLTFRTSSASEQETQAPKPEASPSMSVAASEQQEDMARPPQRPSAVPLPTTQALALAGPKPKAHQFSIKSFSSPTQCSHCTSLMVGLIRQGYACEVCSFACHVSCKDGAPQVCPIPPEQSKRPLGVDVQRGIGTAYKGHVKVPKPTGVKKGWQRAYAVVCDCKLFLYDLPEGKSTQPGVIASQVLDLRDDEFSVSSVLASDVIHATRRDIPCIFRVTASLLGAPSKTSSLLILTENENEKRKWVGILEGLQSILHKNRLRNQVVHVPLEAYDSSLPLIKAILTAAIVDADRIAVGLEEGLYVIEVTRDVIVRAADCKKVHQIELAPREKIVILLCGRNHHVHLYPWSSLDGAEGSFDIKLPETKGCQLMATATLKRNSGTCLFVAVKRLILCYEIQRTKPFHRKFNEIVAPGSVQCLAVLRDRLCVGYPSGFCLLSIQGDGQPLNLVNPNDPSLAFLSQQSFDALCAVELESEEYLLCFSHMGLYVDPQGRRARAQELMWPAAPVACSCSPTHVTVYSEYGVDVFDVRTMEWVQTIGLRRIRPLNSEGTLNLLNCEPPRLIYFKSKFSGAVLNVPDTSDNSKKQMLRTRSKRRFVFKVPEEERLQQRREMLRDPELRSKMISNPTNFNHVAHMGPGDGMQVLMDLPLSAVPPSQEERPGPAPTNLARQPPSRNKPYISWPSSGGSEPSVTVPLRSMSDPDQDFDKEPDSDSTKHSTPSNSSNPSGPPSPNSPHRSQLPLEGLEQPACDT

[6] = target: Mitogen-activated protein kinase 7 (Homo sapiens) (UniProt Q13164); test: Inhibition of ERK5 (unknown origin) assessed as remaining activity at 1 uM by Kinome scan method relative to control
[7] = target: Mitogen-activated protein kinase kinase kinase 19 (Homo sapiens) (UniProt Q56UN5); test: Inhibition of YSK4 (unknown origin) assessed as remaining activity at 1 uM by Kinome scan method relative to control
[8] = target: T2, Mitogen-activated protein kinase kinase kinase kinase 2 (Homo sapiens) (UniProt Q12851); test: Inhibition of MAP4K2 (unknown origin) assessed as remaining activity at 1 uM by Kinome scan method relative to control
T2 sequence (whole entry): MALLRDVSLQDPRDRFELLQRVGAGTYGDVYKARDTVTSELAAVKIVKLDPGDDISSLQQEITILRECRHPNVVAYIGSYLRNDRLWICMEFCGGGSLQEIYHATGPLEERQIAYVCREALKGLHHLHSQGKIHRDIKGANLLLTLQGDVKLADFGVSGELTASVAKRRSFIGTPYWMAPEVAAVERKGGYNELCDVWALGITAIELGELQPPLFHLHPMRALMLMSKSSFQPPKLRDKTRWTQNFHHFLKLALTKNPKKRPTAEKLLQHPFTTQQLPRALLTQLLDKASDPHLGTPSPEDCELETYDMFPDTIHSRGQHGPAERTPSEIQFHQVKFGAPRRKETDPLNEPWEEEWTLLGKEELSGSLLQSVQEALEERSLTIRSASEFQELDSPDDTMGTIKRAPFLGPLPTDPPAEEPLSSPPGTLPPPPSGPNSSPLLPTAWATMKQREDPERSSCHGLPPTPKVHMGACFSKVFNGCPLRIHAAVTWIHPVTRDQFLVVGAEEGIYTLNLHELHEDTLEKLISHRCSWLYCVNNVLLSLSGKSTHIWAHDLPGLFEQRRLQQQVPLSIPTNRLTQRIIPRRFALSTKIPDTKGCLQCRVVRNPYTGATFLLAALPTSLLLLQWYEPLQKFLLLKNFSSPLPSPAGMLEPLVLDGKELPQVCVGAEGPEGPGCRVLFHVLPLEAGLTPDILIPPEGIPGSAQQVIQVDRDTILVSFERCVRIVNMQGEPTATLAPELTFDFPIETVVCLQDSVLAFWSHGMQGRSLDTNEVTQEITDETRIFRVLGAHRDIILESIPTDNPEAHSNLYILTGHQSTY

[9] = target: Cyclin-dependent kinase 14 (Homo sapiens) (UniProt O94921); test: Inhibition of PFTK1 (unknown origin) assessed as remaining activity at 1 uM by Kinome scan method relative to control
[10] = target: T3, Inhibitor of nuclear factor kappa-B kinase subunit alpha (Homo sapiens) (UniProt O15111); test: Inhibition of IKK-alpha (unknown origin) assessed as remaining activity at 1 uM by Kinome scan method relative to control
T3 sequence (whole entry): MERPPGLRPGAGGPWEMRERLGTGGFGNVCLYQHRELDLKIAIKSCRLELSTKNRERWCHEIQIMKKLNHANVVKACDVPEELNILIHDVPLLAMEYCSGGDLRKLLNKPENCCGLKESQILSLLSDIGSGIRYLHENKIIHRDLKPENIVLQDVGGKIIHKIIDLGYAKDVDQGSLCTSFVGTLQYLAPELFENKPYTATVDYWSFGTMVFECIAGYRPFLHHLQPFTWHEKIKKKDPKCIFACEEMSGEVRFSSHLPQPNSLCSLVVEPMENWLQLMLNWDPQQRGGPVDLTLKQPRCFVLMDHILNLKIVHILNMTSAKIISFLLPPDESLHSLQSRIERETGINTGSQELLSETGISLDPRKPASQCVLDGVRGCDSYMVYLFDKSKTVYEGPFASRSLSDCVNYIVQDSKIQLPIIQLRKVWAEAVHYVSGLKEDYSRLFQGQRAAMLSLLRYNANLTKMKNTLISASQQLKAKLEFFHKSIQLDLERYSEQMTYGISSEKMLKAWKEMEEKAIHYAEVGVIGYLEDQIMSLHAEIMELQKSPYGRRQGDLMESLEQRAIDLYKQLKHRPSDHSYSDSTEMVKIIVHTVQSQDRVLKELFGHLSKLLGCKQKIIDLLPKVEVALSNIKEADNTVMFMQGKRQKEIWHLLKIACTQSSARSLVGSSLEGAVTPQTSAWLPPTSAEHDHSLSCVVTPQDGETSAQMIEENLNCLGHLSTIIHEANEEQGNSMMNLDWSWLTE

[11] = target: Serine/threonine-protein kinase DCLK1 (Homo sapiens) (UniProt O15075); test: Inhibition of DCAMKL1 (unknown origin) assessed as remaining activity at 1 uM by Kinome scan method relative to control
[12] = target: Serine/threonine-protein kinase STK11 (Homo sapiens) (UniProt Q15831); test: Inhibition of LKB1 (unknown origin) assessed as remaining activity at 1 uM by Kinome scan method relative to control
Sequence of Serine/threonine-protein kinase STK11 (Homo sapiens) (Q15831 whole entry, the tested form may be a part): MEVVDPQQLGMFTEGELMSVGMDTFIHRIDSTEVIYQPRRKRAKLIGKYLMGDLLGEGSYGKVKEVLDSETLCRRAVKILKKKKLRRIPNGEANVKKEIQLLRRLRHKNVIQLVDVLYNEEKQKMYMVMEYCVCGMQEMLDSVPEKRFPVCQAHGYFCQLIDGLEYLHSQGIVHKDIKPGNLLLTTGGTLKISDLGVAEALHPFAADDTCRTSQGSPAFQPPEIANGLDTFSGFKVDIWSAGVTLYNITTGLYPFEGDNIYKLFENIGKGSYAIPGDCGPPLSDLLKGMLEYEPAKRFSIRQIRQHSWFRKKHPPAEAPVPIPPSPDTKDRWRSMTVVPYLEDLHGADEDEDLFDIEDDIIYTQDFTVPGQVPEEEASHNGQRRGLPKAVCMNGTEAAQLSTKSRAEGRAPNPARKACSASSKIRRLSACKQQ

[13] = target: Tyrosine-protein kinase JAK2 (Homo sapiens) (UniProt O60674); test: Inhibition of JAK2 JH1 domain (unknown origin) assessed as remaining activity at 1 uM by Kinome scan method relative to control
Sequence of Tyrosine-protein kinase JAK2 (Homo sapiens) (O60674 whole entry, the tested form may be a part): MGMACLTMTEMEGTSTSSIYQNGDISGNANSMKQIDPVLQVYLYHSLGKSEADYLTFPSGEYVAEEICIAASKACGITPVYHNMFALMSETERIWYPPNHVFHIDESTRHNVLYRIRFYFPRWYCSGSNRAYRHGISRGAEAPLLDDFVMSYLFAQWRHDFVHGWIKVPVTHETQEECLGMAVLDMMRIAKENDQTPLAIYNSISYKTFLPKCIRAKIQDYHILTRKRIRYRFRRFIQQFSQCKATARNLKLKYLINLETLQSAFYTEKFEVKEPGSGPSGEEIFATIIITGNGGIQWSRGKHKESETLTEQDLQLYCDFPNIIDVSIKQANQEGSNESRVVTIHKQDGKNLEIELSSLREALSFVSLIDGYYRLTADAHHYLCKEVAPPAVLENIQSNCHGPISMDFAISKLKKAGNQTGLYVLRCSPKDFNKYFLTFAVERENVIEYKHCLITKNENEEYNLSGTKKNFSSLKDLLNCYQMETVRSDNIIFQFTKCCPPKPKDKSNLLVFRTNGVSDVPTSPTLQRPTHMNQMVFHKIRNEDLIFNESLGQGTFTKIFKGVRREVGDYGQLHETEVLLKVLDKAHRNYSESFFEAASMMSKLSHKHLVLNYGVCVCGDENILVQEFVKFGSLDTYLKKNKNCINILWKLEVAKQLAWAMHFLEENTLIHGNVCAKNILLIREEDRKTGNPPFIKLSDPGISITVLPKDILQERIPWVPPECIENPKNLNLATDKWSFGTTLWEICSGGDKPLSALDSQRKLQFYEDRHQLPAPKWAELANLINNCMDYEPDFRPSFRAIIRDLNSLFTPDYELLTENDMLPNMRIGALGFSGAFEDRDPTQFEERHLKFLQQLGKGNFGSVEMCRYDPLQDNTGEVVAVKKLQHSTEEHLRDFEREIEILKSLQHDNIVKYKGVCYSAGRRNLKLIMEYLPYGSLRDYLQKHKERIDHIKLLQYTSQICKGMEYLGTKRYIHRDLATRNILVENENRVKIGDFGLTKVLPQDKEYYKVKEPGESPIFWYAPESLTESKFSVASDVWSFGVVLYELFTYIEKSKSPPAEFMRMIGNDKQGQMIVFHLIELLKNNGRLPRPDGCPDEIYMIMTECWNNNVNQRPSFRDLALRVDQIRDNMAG

[14] = target: Interferon-induced, double-stranded RNA-activated protein kinase (Homo sapiens) (UniProt P19525); test: Inhibition of PRKR (unknown origin) assessed as remaining activity at 1 uM by Kinome scan method relative to control
Sequence of Interferon-induced, double-stranded RNA-activated protein kinase (Homo sapiens) (P19525 whole entry): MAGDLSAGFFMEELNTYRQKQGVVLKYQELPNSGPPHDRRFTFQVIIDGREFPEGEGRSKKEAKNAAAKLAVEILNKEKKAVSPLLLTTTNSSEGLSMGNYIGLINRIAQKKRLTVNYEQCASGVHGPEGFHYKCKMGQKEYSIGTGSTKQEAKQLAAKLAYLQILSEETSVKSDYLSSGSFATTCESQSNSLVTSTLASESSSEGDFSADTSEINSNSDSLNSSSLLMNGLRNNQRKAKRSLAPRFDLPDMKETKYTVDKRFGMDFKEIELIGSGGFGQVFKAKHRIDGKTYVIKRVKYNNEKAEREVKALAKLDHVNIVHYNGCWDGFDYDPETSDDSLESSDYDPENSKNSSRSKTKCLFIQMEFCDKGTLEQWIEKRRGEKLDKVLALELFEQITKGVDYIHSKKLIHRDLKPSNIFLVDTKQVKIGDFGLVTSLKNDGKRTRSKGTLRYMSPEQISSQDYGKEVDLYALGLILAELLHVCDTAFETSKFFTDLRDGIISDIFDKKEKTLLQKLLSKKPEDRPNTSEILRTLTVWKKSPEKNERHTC

Sequence of Serine/threonine-protein kinase 26 (Homo sapiens) (Q9P289 2-416 limits assumed): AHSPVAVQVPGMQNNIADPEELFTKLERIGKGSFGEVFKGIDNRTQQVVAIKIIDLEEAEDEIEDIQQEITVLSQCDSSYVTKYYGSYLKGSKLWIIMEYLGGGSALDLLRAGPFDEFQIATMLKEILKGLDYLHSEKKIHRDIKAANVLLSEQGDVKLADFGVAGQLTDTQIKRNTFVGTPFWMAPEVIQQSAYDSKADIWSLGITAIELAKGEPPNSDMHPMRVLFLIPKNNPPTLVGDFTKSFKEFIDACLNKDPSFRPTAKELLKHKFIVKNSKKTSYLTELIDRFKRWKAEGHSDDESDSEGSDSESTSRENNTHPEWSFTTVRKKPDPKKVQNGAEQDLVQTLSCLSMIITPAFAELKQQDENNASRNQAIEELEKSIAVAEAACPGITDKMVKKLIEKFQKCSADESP

SMILES	Activity [1]	Activity [2]	Activity [3]	Activity [4]	Activity [5]	Activity [6]	Activity [7]	Activity [8]	Activity [9]	Activity [10]	Activity [11]	Activity [12]	Activity [13]	Activity [14]
Nc1ccccc1Nc1ccc2c(c1)CCc1ccccc1C2=O	96%	96%	98%	88%	71%	96%	99%	99%	94%	98%	92%	98%	80%	86%
O=C1c2ccc(Nc3ccc(F)cc3F)cc2CCc2ccc(OC[C@H](O)CO)cc21 [Skepinone-L]	100%	94%	88%	90%	97%	99%	100%	94%	86%	100%	97%	100%	100%	82%
